According to US5070210A, “Novel ketenimines as intermediates for insecticides” (ICI Americas Inc., priority 1990, dated 1991):

Key:
Type in all cases: in vivo
[1] = system: Housefly [Musca domestica]; assay: Housefly insecticidal test; details: μg per 25 female flies; mortality after 48 hours
Description: (§1) The compounds in Tables 1 and 2 above were tested for insecticidal activity using the following testing procedures. LC50 values, based on the results of these tests and calculated according to dosage-mortality curves, are expressed in Table 3.
Housefly [Musca domestica]:
Test compounds were diluted in acetone and aliquots pipetted onto the bottom of aluminum dishes. To ensure even spreading of the chemical on the bottom of the dishes, 1 ml of acetone containing 0.01% peanut oil was also added to each dish. After all solvents had evaporated, the dishes were placed in circular cardboard cages containing 25 female houseflies, 1-2 days old. The cages were covered on the bottom with cellophane and on the top with tulle netting, and each contained a sugar-water saturated cotton plug for maintenance of the flies. Mortality was recorded after 48 hours. Test levels ranged from 100 μg/25 female houseflies downward. The LC-50 value is expressed below in Table 3 under the heading "HF", in terms of μg of the test compound per 25 female flies.

[2] = system: Tobacco Budworm [Heliothis virescens (Fabricius)] eggs; assay: Tobacco budworm egg test; details: 2-day old eggs, percent in solution
Description: as §1
Tobacco Budworm [Heliothis virescens (Fabricius)]:
(b). Eggs: Paper towel patches of 2-day old eggs of the tobacco budworm were dipped in acetone solutions of the test compound and placed in petri dishes containing a portion of larval rearing medium. Treated eggs were maintained at 78° F. and mortality was recorded after all control eggs had hatched and the young larvae were feeding on the media. Test concentrations ranged from 0.1% downward. The LC-50 value is expressed below in Table 3 under the heading "TBW-E" in terms of percent of the test compound in the solution.

[3] = system: Cabbage Looper [Trichoplusia ni (Hubner)]; assay: Cabbage looper insecticidal test; details: second-instar larvae, percent in solution; 3-5 days
Description: as §1
Cabbage Looper [Trichoplusia ni (Hubner)]:
Test compounds were diluted in a 50-50 acetone-water solution. Cotyledons of hyzini squash (Calabacita abobrinha), approximately 1×1.5 inches, were immersed in the test solutions for 2-3 seconds and placed on a wire screen to dry. The dried leaves were placed in petri dishes containing a moistened piece of filter paper and infested with 5 second-instar cabbage looper larvae. The dishes were placed in a high humidity chamber. Mortality of the larvae was recorded 3-5 days later. Test concentrations ranged from 0.1% downward. The LC-50 value is expressed below in Table 3 under the heading "CL" in terms of percent of the test compound in solution.

| SMILES | LC50, HF [1] | LC50, TBW, E (TBW-E) [2] | LC50, CL [3] |
| --- | --- | --- | --- |
| CC(C)C(=Nc1ccc(C#N)cc1)OCc1cccc(Oc2cccc(Cl)c2)c1 [Compound 208] | 27 µg | > 0.1% | 0.0035% |
| CCC(C)C(=Nc1ccc(Cl)c(Cl)c1)OCc1cccc(Oc2ccc(F)cc2)c1 (stereo not drawn) [Compound 211] | 61 µg | > 0.1% | 0.0017% |
| CC(C)C(=Nc1ccc(F)c(F)c1)OCc1cccc(Oc2ccc(C#N)cc2)c1 [Compound 212] | 20 µg | 0.045% | 0.0005% |
| CC(C)C(=Nc1ccc(Cl)c(Cl)c1)OCc1cccc(Oc2ccc(F)cc2F)c1 [Compound 213] | > 100 µg | > 0.1% | 0.00075% |
| CC(C)C(=Nc1ccc(F)c(F)c1)OCc1cccc(Oc2ccc(F)cc2F)c1 [Compound 214] | 19 µg | 0.04% | 0.0003% |
| CC(C)C(=Nc1ccc(F)c(Cl)c1)OCc1cccc(Oc2cc(F)cc(F)c2)c1 [Compound 215] | 75 µg | > 0.1% | 0.00075% |
| CC(C)C(=Nc1ccc(Cl)c(Cl)c1)OCc1cccc(Oc2ccc(F)c(F)c2)c1 [Compound 218] | 25 µg | 0.025% | 0.0003% |
| COc1ccc(Oc2cccc(COC(=Nc3ccc(F)cc3)C(C)C)c2)cc1 [Compound 220] | 85 µg | > 0.1% | 0.007% |
| COc1ccc(Oc2cccc(COC(=Nc3ccc(F)c(Cl)c3)C(C)C)c2)cc1 [Compound 221] | 62 µg | > 0.1% | 0.0027% |
| CC(C)C(=Nc1ccc(C#N)c(F)c1)OCc1cccc(Oc2ccc(F)cc2)c1 [Compound 222] | 32 µg | > 0.1% | 0.0015% |
| COc1ccc(Oc2cccc(COC(=Nc3ccc(Cl)c(Cl)c3)C(C)C)c2)cc1 [Compound 223] | 43 µg | > 0.1% | 0.008% |
| CC(C)(Cl)C(=Nc1ccc(F)c(Cl)c1)OCc1cccc(Oc2ccc(F)cc2)c1 [Compound 224] | > 100 µg | > 0.1% | 0.001% |
| CC(C)C(=Nc1ccc(C#N)cc1)OCc1cccc(Oc2ccc(F)cc2)c1 [Compound 227] | 10 µg | 0.1% | 0.0015% |
| CC(C)C(=Nc1cccc(Br)c1)OCc1cccc(Oc2ccc(F)cc2)c1 [Compound 229] | 20 µg | > 0.1% | 0.0005% |
| Cc1ccc(Oc2cccc(COC(=Nc3ccc(F)cc3)C(C)C)c2)cc1 [Compound 231] | > 100 µg | > 0.1% | 0.003% |
| CC(C)C(=Nc1c(F)c(F)c(F)c(F)c1F)OCc1cccc(Oc2ccc(F)cc2F)c1 [Compound 232] | > 100 µg | > 0.1% | 0.004% |
| CC(C)C(=Nc1ccc(C(C)(C)C)cc1)OCc1cccc(Oc2ccc(F)cc2)c1 [Compound 235] | > 100 µg | > 0.1% | 0.004% |
| Cc1cc(N=C(OCc2cccc(Oc3ccc(F)cc3)c2)C(C)C)ccc1F [Compound 236] | 7 µg | 0.06% | 0.0018% |
| CC(C)C(=Nc1ccc(Cl)cc1)OCc1cccc(Oc2ccc(Br)cc2)c1 [Compound 237] | 50 µg | 0.075% | 0.0006% |

| SMILES | LC50, HF [1] | LC50, TBW, E (TBW-E) [2] | LC50, CL [3] |
| --- | --- | --- | --- |
| CC(C)C(=Nc1ccc2c(c1)OC(C)(C)O2)OCc1cccc(Oc2ccc(Cl)cc2)c1 [Compound 241] | > 100 µg | > 0.1% | 0.0004% |
| CC(C)C(=Nc1ccc2c(c1)CCO2)OCc1cccc(Oc2ccccc2)c1 [Compound 243] | 9 µg | > 0.1% | 0.005% |
| CC(C)C(=Nc1ccc2c(c1)OCO2)OCc1cccc(Oc2ccc(C(F)(F)F)cc2)c1 [Compound 246] | 60 µg | > 0.1% | 0.004% |
| CC(C)C(=Nc1ccc(F)c(Cl)c1)OCc1cccc(Oc2ccc(C(F)(F)F)cc2)c1 [Compound 247] | > 100 µg | > 0.1% | 0.009% |
| COc1cc(N=C(OCc2cccc(Oc3ccccc3)c2)C(C)C)cc(OC)c1OC [Compound 248] | 40 µg | > 0.1% | 0.02% |
| Cc1cccc(N=C(OCc2cccc(Oc3ccccc3)c2)C(C)C)c1C [Compound 249] | 36 µg | 0.035% | 0.0025% |
| Cc1ccc(C)c(N=C(OCc2cccc(Oc3ccccc3)c2)C(C)C)c1 [Compound 250] | 38 µg | 0.038% | 0.004% |
| CC(C)C(=Nc1ccc(Br)c(Br)c1)OCc1cccc(Oc2ccc(F)cc2)c1 [Compound 251] | 25 µg | 0.06% | 0.0005% |
| CC(C)C(=Nc1ccc(Br)c(Br)c1)OCc1cccc(Oc2ccccc2)c1 [Compound 252] | 34 µg | 0.04% | 0.0035% |
| CC(C)C(=Nc1cccc(Cl)c1)OCc1cccc(Oc2ccc(Br)cc2)c1 [Compound 260] | 22 µg | > 0.1% | 0.00075% |
| CCC(C)C(=Nc1ccc(F)c(Cl)c1)OCc1ccc(F)c(Oc2ccccc2)c1 (stereo not drawn) [Compound 261] | 24 µg | 0.05% | 0.001% |
| Cc1ccc(Cl)cc1N=C(OCc1cccc(Oc2ccccc2)c1)C(C)C [Compound 263] | > 100 µg | > 0.1% | 0.05% |
| COc1ccc(Cl)cc1N=C(OCc1cccc(Oc2ccccc2)c1)C(C)C [Compound 264] | > 100 µg | > 0.1% | 0.03% |
| CC(C)C(=Nc1ccc(F)cc1)OCc1cccc(Oc2ccc(F)c(F)c2)c1 [Compound 265] | 10 µg | 0.07% | 0.00025% |
| CC(C)C(=Nc1cccc(SC(F)(F)F)c1)OCc1cccc(Oc2ccc(F)cc2)c1 [Compound 272] | > 100 µg | > 0.1% | 0.0024% |
| CC(C)C(=Nc1ccc2c(c1)OCO2)OCc1cc(Oc2ccc(F)cc2)ccc1Cl [Compound 274] | > 100 µg | > 0.1% | 0.1% |
| CC(C)C(=Nc1ccc(F)c(F)c1)OCc1cccc(Oc2ccc(Br)cc2)c1 [Compound 275] | 21 µg | 0.045% | 0.00012% |
| CC(C)C(=Nc1ccc(F)c(Br)c1)OCc1cccc(Oc2ccc(Br)cc2)c1 [Compound 276] | 39 µg | 0.1% | 0.002% |
